# Key:
# [1] = Study 3: Lyrica combination product in generalized anxiety disorder (GAD), perceived symptoms, side effects, quality of life, adherence; conditions: Patient 3 (only PP); for Anxiety Daytime / Anxiety Evening/Night / Fatigue / Muscle tension Daytime / Muscle tension Evening/Night: average VAS 0-10; for Dizziness / Dry month / Nausea: frequency of Yes answers; for Quality of Life: average VAS 0-10, 10 = Extremely good
# Procedure: Three patients participated in the study, where two of them were given the combination product, A+B, and the third was given the PP, A. All three patients were using an evaluation tool in order to capture the continuous data concerning their current health situation. Prior to entering the study none of the patients had used either the PP or the CPP.
# Length of study: 2 months.
# The two patients using the combination product were evaluated against the one patient using only the PP and being treated according to ordinary health care in Sweden.
# Due to the specific and profound study objectives, detailed outcome and behavior during the study period from the patients were evaluated against each other. The measurements of the patient outcomes were evaluated for each patient in different time phases during the treatment period.
# In order to measure the appropriate patient outcome, the patients were continuously followed-up. […] The used QFM for the patients in the intervention group, patient 1 and 2: • 1. Set of questions. • 2. Set of functions generating individual and patient specific feedback information. • 3. Feedback based upon the individual patient specific feedback information.
# The used set of questions for the patient in the control group, patient 3: • 1. Set of questions similar to the intervention group in order to capture patient reported outcome data • 2. No set of functions. • 3. No feedback information or feedback.
# The measured variables (see table 19) were symptom and side effect levels which were perceived estimates by each patient at every measure point. The change in levels of symptoms and side effects between different measured times were used for comparisons. Symptoms and side effects are many times closely related in GAD. In this study anxiety, fatigue, and muscle tension were defined as symptoms while dizziness, nausea, and dry mouth were considered as side effects. This study focused on the overall clinical effect and patient safety aspects therefore it was not crucial to the results if a measured variable could have been defined differently.
# [2] = test period when patient was only taking Metformin (two months)
# Procedure: Follow-up variables: HbA1c • c. Period of time using the combination product: Three months. • d. Period of time using only the pharmaceutical, i.e. no combination product, prior to the period of using the combination product: Two months
# Metformin was the following: • Adherence to Metformin: • The patient was asked to answer a question whether or not he/she had been adherent to Metformin, and which dose the patient took; “I have taken my Metformin today with the daily dose of 500 mg/1000 mg/1500 mg/2000 mg/2500 mg or 3000 mg”. • Physical activity: • The patient was asked to continuously answer a question like the following: “I have been exercising the following number of minutes today: [number]”. • Weight/BMI: • The patient was asked to answer a question regarding his/her actual weight. • Blood glucose: • The patient was asked to register his/her measured blood glucose, when he/she had measured it. It was possible for the patient to change or update already registered answers. • HbA1c: • The patient was asked to register his/her HbA1c after it had been measured at a clinic. • A possible adverse event for Metformin: • “Have you experienced unexpected loss of weight, severe nausea or vomiting (malaise), uncontrolled sudden pain when breathing or abdominal? […] Extremely much versus Nothing at all” according to a VAS structure
# [3] = test period when patient only was taking Zoloft (two months)
# Excerpt: Test objectives; improve cardiovascular and diabetes symptoms through an increased well-being from improved adherence to Zoloft, initiating primarily an improved level of physical activity • b. Follow-up variables: Weight and HbA1c • c. Period of time using the combination product: Five months. • d. Period of time using only the pharmaceutical, i.e. no combination product, prior to the period of using the combination product: Two months • e. Period of time using only the software application, after the period of using the combination product: Two weeks
# The individual goal was set-up by the patient by answering the following question: “Give your own personal goal for the physical activity in number of minutes for one week”. • The patient was then asked to continuously answer a question like the following: “I have been exercising the following number of minutes today: [number]”. • Weight/BMI: • The patient was asked to answer a question regarding his/her actual weight. • Depression and Anxiety, respectively: • The patient was asked to register the actual level of perceived depression respectively actual level of perceived anxiety at predefined occasions every second day. It was also possible for the patient to answer the question when he/she wanted. […]
compound,measurement,setting,value
"CC(C)C[C@H](CN)CC(=O)O [A, pregabalin]",Anxiety Daytime,[1]; 1st phase,3.5
same,Anxiety Evening/Night,[1]; 1st phase,2.8
same,Fatigue,[1]; 1st phase,5.4
same,Muscle tension Daytime,[1]; 1st phase,6.3
same,Muscle tension Evening/Night,[1]; 1st phase,3.9
same,Dizziness,[1]; 1st phase,13%
same,Dry month,[1]; 1st phase,0%
same,Nausea,[1]; 1st phase,38%
same,Anxiety Daytime,[1]; 2nd phase,3.0
same,Anxiety Evening/Night,[1]; 2nd phase,2.9
same,Fatigue,[1]; 2nd phase,5.0
same,Muscle tension Daytime,[1]; 2nd phase,7.8
same,Muscle tension Evening/Night,[1]; 2nd phase,7.4
same,Dizziness,[1]; 2nd phase,0%
same,Dry month,[1]; 2nd phase,0%
same,Nausea,[1]; 2nd phase,11%
same,"Anxiety Daytime, Change",[1]; 2nd vs 1st phase,−0.5
same,"Anxiety Evening/Night, Change",[1]; 2nd vs 1st phase,0.1
same,"Dizziness, Change",[1]; 2nd vs 1st phase,−13 p.p.
same,"Dry month, Change",[1]; 2nd vs 1st phase,0 p.p.
same,"Fatigue, Change",[1]; 2nd vs 1st phase,−0.4
same,"Muscle tension Daytime, Change",[1]; 2nd vs 1st phase,1.5
same,"Muscle tension Evening/Night, Change",[1]; 2nd vs 1st phase,5.5
same,"Nausea, Change",[1]; 2nd vs 1st phase,−27 p.p.
same,Anxiety Daytime,[1]; 3rd phase,1.9
same,Anxiety Evening/Night,[1]; 3rd phase,1.8
same,Fatigue,[1]; 3rd phase,5.1
same,Muscle tension Daytime,[1]; 3rd phase,7.1
same,Muscle tension Evening/Night,[1]; 3rd phase,7.2
same,Dizziness,[1]; 3rd phase,0%
same,Dry month,[1]; 3rd phase,0%
same,Nausea,[1]; 3rd phase,0%
same,"Anxiety Daytime, Change",[1]; 3rd vs 2nd phase,−1.1
same,"Anxiety Evening/Night, Change",[1]; 3rd vs 2nd phase,−1.1
same,"Dizziness, Change",[1]; 3rd vs 2nd phase,0 p.p.
same,"Dry month, Change",[1]; 3rd vs 2nd phase,0 p.p.
same,"Fatigue, Change",[1]; 3rd vs 2nd phase,0.1
same,"Muscle tension Daytime, Change",[1]; 3rd vs 2nd phase,−0.7
same,"Muscle tension Evening/Night, Change",[1]; 3rd vs 2nd phase,−0.3
same,"Nausea, Change",[1]; 3rd vs 2nd phase,−11 p.p.
same,Anxiety Daytime,[1]; End period,2.0
same,Anxiety Evening/Night,[1]; End period,2.5
same,Fatigue,[1]; End period,4.8
same,Muscle tension Daytime,[1]; End period,7.3
same,Muscle tension Evening/Night,[1]; End period,7.4
same,Quality of Life,[1]; End period,2.5
same,Dizziness,[1]; End period,0%
same,Dry month,[1]; End period,0%
same,Nausea,[1]; End period,0%
same,"Anxiety Daytime, Change",[1]; End vs Start period,−1.8
same,"Anxiety Evening/Night, Change",[1]; End vs Start period,0.1
same,"Dizziness, Change",[1]; End vs Start period,−13 p.p.
same,"Dry month, Change",[1]; End vs Start period,0 p.p.
same,"Fatigue, Change",[1]; End vs Start period,−0.8
same,"Muscle tension Daytime, Change",[1]; End vs Start period,1.4
same,"Muscle tension Evening/Night, Change",[1]; End vs Start period,4.0
same,"Nausea, Change",[1]; End vs Start period,−38 p.p.
same,"Quality of Life, Change",[1]; End vs Start period,0.5
same,Anxiety Daytime,[1]; Start period,3.8
same,Anxiety Evening/Night,[1]; Start period,2.4
same,Fatigue,[1]; Start period,5.6
same,Muscle tension Daytime,[1]; Start period,5.9
same,Muscle tension Evening/Night,[1]; Start period,3.4
same,Quality of Life,[1]; Start period,2.0
same,Dizziness,[1]; Start period,13%
same,Dry month,[1]; Start period,0%
same,Nausea,[1]; Start period,38%
CN(C)C(=N)N=C(N)N [Metformin],increase of HbA1c,[2],7%
"CN[C@H]1CC[C@@H](c2ccc(Cl)c(Cl)c2)c2ccccc21 [Zoloft, Sertralin]",HbA1c course,[3],remained stable or slightly increased
same,weight gain,[3],1-2%
